According to US20120157452A1, “1H-PYRAZOLO[3,4-B] PYRIDINE COMPOUNDS FOR INHIBITING RAF KINASE” (GENENTECH, INC., priority 2009, published 2012):
pIC50: −log10 of the molar value.

Target: T1, V600E full-length B-Raf (Homo sapiens, UniProt P15056, V600E)
T1 construct: made in house; host or cells: Sf9 insect cells (baculovirus)
Test: B-Raf IC50 assay: incorporation of radio labeled phosphate from [γ-33P]ATP into FSBA-modified wild-type MEK
Format: biochemical
From the text: Determining the activity of Raf in the sample is possible by a number of direct and indirect detection methods (US 2004/0082014). Activity of human recombinant B-Raf protein may be assessed in vitro by assay of the incorporation of radio labeled phosphate to recombinant MAP kinase (MEK), a known physiologic substrate of B-Raf, according to US 2004/0127496 and WO 03/022840. The activity/inhibition of V600E full-length B-Raf was estimated by measuring the incorporation of radio labeled phosphate from [γ-^33]ATP into FSBA-modified wild-type MEK (see Biological Example 1).
Activity of human recombinant B-Raf protein may be assessed in vitro by assay of the incorporation of radio labeled phosphate to recombinant MAP kinase (MEK), a known physiologic substrate of B-Raf, according to US 2004/0127496 and WO 03/022840. Catalytically active human recombinant B-Raf protein is obtained by purification from sf9 insect cells infected with a human B-Raf recombinant baculovirus expression vector.
The activity/inhibition of V600E full-length B-Raf was estimated by measuring the incorporation of radio labeled phosphate from [γ-^33]ATP into FSBA-modified wild-type MEK. The 30-μL, assay mixtures contained 25 mM Na Pipes, pH 7.2, 100 mM KCl, 10 mM MgCl2, 5 mM β-glycerophosphate, 100 μM Na Vanadate, 4 μM ATP, 500 nCi [γ-^33P]ATP, 1 μM FSBA-MEK and 20 nM V600E full-length B-Raf. Incubations were carried out at 22° C. in a Costar 3365 plate (Corning). Prior to the assay, the B-Raf and FSBA-MEK were preincubated together in assay buffer at 1.5× (20 μL of 30 nM and 1.5 μM, respectively) for 15 minutes, and the assay was initiated by the addition of 10 μL of […]. Following the 60-minute incubation, the assay mixtures were quenched by the addition of 100 μL of 25% TCA, the plate was mixed on a rotary shaker for 1 minute, and the product was captured on a Perkin-Elmer GF/B filter plate using a Tomtec Mach III Harvester. After sealing the bottom of the plate, 35 μL of Bio-Safe II (Research Products International) scintillation cocktail were added to each well and the plate was top-sealed and counted in a Topcount NXT (Packard).

[1] = 4 μM ATP, 60-minute incubation, representative data of multiple tests

T1 sequence (P15056 whole entry V600E): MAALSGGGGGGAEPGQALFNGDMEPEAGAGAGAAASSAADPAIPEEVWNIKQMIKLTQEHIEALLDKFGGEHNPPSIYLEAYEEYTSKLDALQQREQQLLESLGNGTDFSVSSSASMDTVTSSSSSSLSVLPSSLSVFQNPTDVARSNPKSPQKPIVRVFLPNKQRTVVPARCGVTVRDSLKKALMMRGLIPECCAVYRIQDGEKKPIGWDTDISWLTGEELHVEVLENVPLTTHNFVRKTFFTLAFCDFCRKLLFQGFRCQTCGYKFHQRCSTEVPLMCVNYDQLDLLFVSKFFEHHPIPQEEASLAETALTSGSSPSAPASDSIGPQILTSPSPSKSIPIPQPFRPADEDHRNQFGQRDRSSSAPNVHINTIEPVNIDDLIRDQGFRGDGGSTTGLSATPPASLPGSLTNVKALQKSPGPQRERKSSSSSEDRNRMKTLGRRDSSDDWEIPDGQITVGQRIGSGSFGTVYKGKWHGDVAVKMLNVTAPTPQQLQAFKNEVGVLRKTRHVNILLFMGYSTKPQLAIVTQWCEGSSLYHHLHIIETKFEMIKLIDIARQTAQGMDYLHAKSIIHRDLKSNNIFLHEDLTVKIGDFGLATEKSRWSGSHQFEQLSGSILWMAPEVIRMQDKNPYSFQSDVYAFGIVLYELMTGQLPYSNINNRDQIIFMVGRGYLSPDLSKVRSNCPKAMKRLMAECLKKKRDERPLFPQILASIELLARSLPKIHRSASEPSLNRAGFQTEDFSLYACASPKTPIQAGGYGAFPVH

Row | pIC50 [1] | pIC50 (bound stated) | SMILES
1 | 7.46 | > 7.00 | COc1n[nH]c2ncc(NC(=O)c3c(F)cc(F)c(OCc4ccccc4)c3F)cc12 [Example 32, 3-(benzyloxy)-2,4,6-trifluoro-N-(3-methoxy-1H-pyrazolo[3,4-b]pyridin-5-yl)benzamide]
2 | 7.77 | > 7.00 | COc1n[nH]c2ncc(NC(=O)c3c(F)ccc(OCc4ccccc4)c3Cl)cc12 [Example 33, 3-(benzyloxy)-2-chloro-6-fluoro-N-(3-methoxy-1H-pyrazolo[3,4-b]pyridin-5-yl)benzamide]
3 | 8.32 | > 7.00 | Cc1n[nH]c2ncc(NC(=O)c3c(Cl)ccc(OCc4ccccc4)c3F)cc12 [Example 34, 3-(benzyloxy)-6-chloro-2-fluoro-N-(3-methyl-1H-pyrazolo[3,4-b]pyridin-5-yl)benzamide]
4 | 8.68 | > 7.00 | O=C(Nc1cnc2[nH]nc(C3CC3)c2c1)c1c(Cl)ccc(OCc2ccccc2)c1F [Example 35, 3-(benzyloxy)-6-chloro-N-(3-cyclopropyl-1H-pyrazolo[3,4-b]pyridin-5-yl)-2-fluorobenzamide]
5 | 7.43 | > 7.00 | COc1n[nH]c2ncc(NC(=O)c3c(Cl)ccc(OCc4cccnc4)c3F)cc12 [Example 36, 6-chloro-2-fluoro-N-(3-methoxy-1H-pyrazolo[3,4-b]pyridin-5-yl)-3-(pyridin-3-ylmethoxy)benzamide]
6 | 8.42 | > 7.00 | COc1n[nH]c2ncc(NC(=O)c3c(Cl)ccc(OCc4cscn4)c3F)cc12 [Example 37, 6-chloro-2-fluoro-N-(3-methoxy-1H-pyrazolo[3,4-b]pyridin-5-yl)-3-(thiazol-4-ylmethoxy)benzamide]
7 | 7.82 | > 7.00 | COc1n[nH]c2ncc(NC(=O)c3c(Cl)ccc(OCc4cccc(C)n4)c3F)cc12 [Example 38, 6-chloro-2-fluoro-N-(3-methoxy-1H-pyrazolo[3,4-b]pyridin-5-yl)-3-((6-methylpyridin-2-yl)methoxy)benzamide]
8 | 7.19 | > 7.00 | COc1n[nH]c2ncc(NC(=O)c3c(Cl)ccc(OCc4ccncc4)c3F)cc12 [Example 39, 6-chloro-2-fluoro-N-(3-methoxy-1H-pyrazolo[3,4-b]pyridin-5-yl)-3-(pyridin-4-ylmethoxy)benzamide]
9 | 7.57 | > 7.00 | COc1n[nH]c2ncc(NC(=O)c3c(Cl)ccc(OCc4ccncn4)c3F)cc12 [Example 40, 6-chloro-2-fluoro-N-(3-methoxy-1H-pyrazolo[3,4-b]pyridin-5-yl)-3-(pyrimidin-4-ylmethoxy)benzamide]
10 | 6.82 | > 6.30 | COc1n[nH]c2ncc(NC(=O)c3c(Cl)ccc(OCc4ncccn4)c3F)cc12 [Example 41, 6-chloro-2-fluoro-N-(3-methoxy-1H-pyrazolo[3,4-b]pyridin-5-yl)-3-(pyrimidin-2-ylmethoxy)benzamide]
11 | 8.58 | > 7.00 | COc1n[nH]c2ncc(NC(=O)c3c(Cl)ccc(OCc4ccc(C(F)(F)F)nc4)c3F)cc12 [Example 43, 6-chloro-2-fluoro-N-(3-methoxy-1H-pyrazolo[3,4-b]pyridin-5-yl)-3-((6-(trifluoromethyl)pyridin-3-yl)methoxy)benzamide]
12 | 9.19 | > 7.00 | COc1n[nH]c2ncc(NC(=O)c3c(Cl)ccc(OCc4ccc(C)cn4)c3F)cc12 [Example 44, 6-chloro-2-fluoro-N-(3-methoxy-1H-pyrazolo[3,4-b]pyridin-5-yl)-3-((5-methylpyridin-2-yl)methoxy)benzamide]
13 | 9.28 | > 7.00 | COc1n[nH]c2ncc(NC(=O)c3c(Cl)ccc(OCc4ccc(Cl)cn4)c3F)cc12 [Example 45, 6-chloro-3-((5-chloropyridin-2-yl)methoxy)-2-fluoro-N-(3-methoxy-1H-pyrazolo[3,4-b]pyridin-5-yl)benzamide]
14 | 8.22 | > 7.00 | COc1n[nH]c2ncc(NC(=O)c3c(Cl)ccc(OCc4ccc(C)nc4)c3F)cc12 [Example 46, 6-chloro-2-fluoro-N-(3-methoxy-1H-pyrazolo[3,4-b]pyridin-5-yl)-3-((6-methylpyridin-3-yl)methoxy)benzamide]
15 | 8.38 | > 7.00 | COc1n[nH]c2ncc(NC(=O)c3c(Cl)ccc(OCc4ccc(I)cc4)c3F)cc12 [Example 47, 6-chloro-2-fluoro-3-(4-iodobenzyloxy)-N-(3-methoxy-1H-pyrazolo[3,4-b]pyridin-5-yl)benzamide]
16 | 8.77 | > 7.00 | COc1n[nH]c2ncc(NC(=O)c3c(Cl)ccc(OCc4ccc(Br)cc4)c3F)cc12 [Example 48, 3-(4-bromobenzyloxy)-6-chloro-2-fluoro-N-(3-methoxy-1H-pyrazolo[3,4-b]pyridin-5-yl)benzamide]
17 | 8.41 | > 7.00 | COc1n[nH]c2ncc(NC(=O)c3c(Cl)ccc(OCc4ccc(S(C)(=O)=O)cc4)c3F)cc12 [Example 49]
18 | 8.91 | > 7.00 | COc1n[nH]c2ncc(NC(=O)c3c(Cl)ccc(OCc4cccc(Cl)c4)c3F)cc12 [Example 50, 6-chloro-3-(3-chlorobenzyloxy)-2-fluoro-N-(3-methoxy-1H-pyrazolo[3,4-b]pyridin-5-yl)benzamide]
19 | 8.70 | > 7.00 | COc1n[nH]c2ncc(NC(=O)c3c(Cl)ccc(OCc4ccc(C#N)cc4)c3F)cc12 [Example 51, 6-chloro-3-(4-cyanobenzyloxy)-2-fluoro-N-(3-methoxy-1H-pyrazolo[3,4-b]pyridin-5-yl)benzamide]
20 | 7.15 | > 7.00 | COc1n[nH]c2ncc(NC(=O)c3c(Cl)ccc(OCc4scnc4C)c3F)cc12 [Example 52, 6-chloro-2-fluoro-N-(3-methoxy-1H-pyrazolo[3,4-b]pyridin-5-yl)-3-((4-methylthiazol-5-yl)methoxy)benzamide]
21 | 7.88 | > 7.00 | COc1n[nH]c2ncc(NC(=O)c3c(Cl)ccc(OCc4nccs4)c3F)cc12 [Example 53, 6-chloro-2-fluoro-N-(3-methoxy-1H-pyrazolo[3,4-b]pyridin-5-yl)-3-(thiazol-2-ylmethoxy)benzamide]
22 | 8.47 | > 7.00 | COc1n[nH]c2ncc(NC(=O)c3c(Cl)ccc(OCc4ccco4)c3F)cc12 [Example 54, 6-chloro-2-fluoro-3-(furan-2-ylmethoxy)-N-(3-methoxy-1H-pyrazolo[3,4-b]pyridin-5-yl)benzamide]
23 | 8.83 | > 7.00 | CCc1ccc(COc2ccc(Cl)c(C(=O)Nc3cnc4[nH]nc(OC)c4c3)c2F)cc1 [Example 55, 6-chloro-3-(4-ethylbenzyloxy)-2-fluoro-N-(3-methoxy-1H-pyrazolo[3,4-b]pyridin-5-yl)benzamide]
24 | 8.88 | > 7.00 | COc1ccc(COc2ccc(Cl)c(C(=O)Nc3cnc4[nH]nc(OC)c4c3)c2F)cc1 [Example 56, 6-chloro-2-fluoro-N-(3-methoxy-1H-pyrazolo[3,4-b]pyridin-5-yl)-3-(4-methoxy-benzyloxy)benzamide]
25 | 7.58 | > 7.00 | COc1n[nH]c2ncc(NC(=O)c3c(Cl)ccc(OCc4cnccn4)c3F)cc12 [Example 57, 6-chloro-2-fluoro-N-(3-methoxy-1H-pyrazolo[3,4-b]pyridin-5-yl)-3-(pyrazin-2-ylmethoxy)benzamide]
